Blank lines part the entries; values can stand above or below the compound they belong to. The source made the active and inactive calls. The calls are words filed in the database; no cut-off is given here.
Columns and labels:
[1] = Inhibition of IL-17A production in PMA/ionomycin-stimulated mouse EL4 cells at 10 uM measured by ELISA relative to control; format: functional
[2] = Inhibition of IL-17A production in PMA/ionomycin-stimulated mouse EL4 cells measured by ELISA; format: functional, cell-based
EL4 [3] = assay: Inhibition of IL-17A production in PMA/ionomycin-stimulated mouse EL4 cells at 2 to 10 uM measured […]; format: functional, cell-based; conditions: dose 2-10 µM, DDE = dose-dependent effect
EL4 [4] = assay: Inhibition of IL-17A production in PMA/ionomycin-stimulated mouse EL4 cells at 2 to 10 uM measured by ELISA; format: functional, cell-based; conditions: dose 2-10 µM, DDE = dose-dependent effect
EL4 [5] = assay: Inhibition of IL-17A mRNA expression in PMA/ionomycin-stimulated mouse EL4 cells at 10 uM measured by qRT-PCR method; format: functional, cell-based
EL4 [6] = assay: Inhibition of IL-17F mRNA expression in PMA/ionomycin-stimulated mouse EL4 cells at 10 uM measured by qRT-PCR method; format: functional, cell-based
Th17 [7] = assay: Inhibition of human Th17 cells differentiation in CD4+ve T cells assessed as decrease in IL-17A production at 2 uM measured by ELISA; format: functional, cell-based
Th17 [8] = assay: Inhibition of human Th17 cells differentiation in CD4+ve T cells assessed as decrease in IL-17A mRNA expression at 2 uM measured by qRT-PCR method; format: functional, cell-based
EL4 [9] = assay: Downregulation ofp-STAT3 (Y705) expression in PMA/ionomycin-stimulated mouse EL4 cells measured by western blot analysis; format: functional, cell-based
[10] = Inhibition of IL-17A production in PMA/ionomycin-stimulated mouse EL4 cells at 20 uM measured by ELISA relative to control; format: functional

Structure (SMILES): CS(=O)(=O)c1ccc(CNC23CCC(c4nc(Cc5c[nH]c6ccccc56)no4)(CC2)C3)cc1
- inhibition at 10 µM [1]: 8.1%

- IC50 [2]: 7.73 µM
Structure (SMILES): CN(C)CCNc1ccc(-c2noc(Cc3c[nH]c4ccccc34)n2)cc1
- inhibition at 10 µM [1]: 78.7%
- inhibition (EL4 [3]): Dde
- inhibition (EL4 [4]): Dde
- inhibition (EL4 [5]): Active
- inhibition (EL4 [6]): Active
- inhibition (Th17 [7]): Active
- inhibition (Th17 [8]): Active
- Activity (EL4 [9]): Active

Structure (SMILES): Nc1ccc(-c2noc(Cc3c[nH]c4ccccc34)n2)cc1
- inhibition at 10 µM [1]: 6.4%

Structure (SMILES): CS(=O)(=O)c1ccc(CNc2ccc(-c3noc(Cc4c[nH]c5ccccc45)n3)cc2)cc1
- inhibition at 10 µM [1]: 10.3%

Structure (SMILES): O=S(=O)(c1ccccc1)N(CC(F)(F)F)c1ccc(C(O)(C(F)(F)F)C(F)(F)F)cc1 [T091317]
- inhibition at 20 µM [10]: 52.7%

Structure (SMILES): NC12CCC(c3nc(Cc4c[nH]c5ccccc45)no3)(CC1)C2
- inhibition at 10 µM [1]: 3%

- IC50 [2]: 5.29 µM
Structure (SMILES): COc1cc(-c2nc(-c3ccc(NCCN(C)C)cc3)no2)cc(OC)c1OC
- inhibition at 10 µM [1]: 83.5%
- inhibition (EL4 [3]): Dde
- inhibition (EL4 [4]): Dde
- inhibition (EL4 [5]): Active
- inhibition (EL4 [6]): Active

Structure (SMILES): CN(C)CCNc1ccc(-c2noc(-c3ccccc3)n2)cc1
- inhibition at 20 µM [10]: 22.9%

Structure (SMILES): CN(C)CCNc1ccc(-c2noc(C34CC5CC(CC(C5)C3)C4)n2)cc1
- inhibition at 10 µM [1]: 39.6%

Structure (SMILES): c1ccc2c(Cc3noc(CNC4CCC4)n3)c[nH]c2c1
- inhibition at 10 µM [1]: 5.8%

Structure (SMILES): N=C(N)NCCNc1ccc(-c2noc(Cc3c[nH]c4ccccc34)n2)cc1
- inhibition at 10 µM [1]: 15.2%

Structure (SMILES): CC(=O)NCCNc1ccc(-c2noc(Cc3c[nH]c4ccccc34)n2)cc1
- inhibition at 10 µM [1]: 31%

Structure (SMILES): CN(C)CCNCc1nc(Cc2c[nH]c3ccccc23)no1
- inhibition at 10 µM [1]: 6.1%

Structure (SMILES): NCCNc1ccc(-c2noc(Cc3c[nH]c4ccccc34)n2)cc1
- inhibition at 10 µM [1]: 21.5%
